Reference: paper PMC6338342 (Journal of chromatography. B, Analytical technologies in …, 2016)
Read-outs that look alike come from different tables or passages of the source. Blank lines part the entries; values can stand above or below the compound they belong to.

Columns and labels:
[1] = rat, in vivo, po
[2] = in vivo; conditions: male, Sprague-Dawley, rat, po
[3] = test system: 3T3-L1 cells; assay: Adipocyte differentiation and Oil Red O staining; type: cell-based; conditions: 1 or 10 μM, Oil Red O staining on day 8
[4] = test system: UMR 106 cells; assay: Alkaline phosphatase; type: cell-based; conditions: 0.01, 0.1, 1 μM, 48 h
[5] = test system: UMR106 cells; assay: MTT cell proliferation assay; type: cell-based; conditions: 0.01, 0.1, 1, 10 μM, 24 h
[6] = male, Sprague-Dawley, rat, serum, po, 3 g/kg
[7] = male, Sprague-Dawley, rat, serum, po, 6 g/kg
[8] = male, Sprague-Dawley, rat, serum, po, 12 g/kg
[9] = rat serum, oral XLGB extract 3 g/kg, n = 6
[10] = rat serum, oral XLGB extract 6 g/kg, n = 6
[11] = rat serum, oral XLGB extract 12 g/kg, n = 6
[12] = male, Sprague-Dawley, rat, in vivo, po, 3 g/kg
[13] = male, Sprague-Dawley, rat, in vivo, po, 6 g/kg
[14] = male, Sprague-Dawley, rat, in vivo, po, 12 g/kg

Compound: COc1ccc(-c2oc3c(CC=C(C)C)c(O[C@@H]4O[C@H](CO)[C@@H](O)[C@H](O)[C@H]4O)cc(O)c3c(=O)c2O[C@@H]2O[C@@H](C)[C@H](O)[C@@H](O)[C@H]2O[C@@H]2O[C@@H](C)[C@H](O)[C@@H](O)[C@H]2O)cc1 [Epimedin C, epimedin C]
AUC0–∞ ([1]; 3 g/kg): 69.33 ± 37.54 ng·h/mL
AUC(0-t) ([1]; 3 g/kg): 21.70 ± 3.40 ng·h/mL
MRT0–t ([1]; 3 g/kg): 1.41 ± 1.01 h
MRT0–∞ ([1]; 3 g/kg): 20.72 ± 19.70 h
AUC0–∞ ([1]; 6 g/kg): 1365.29 ± 80.31 ng·h/mL
AUC(0-t) ([1]; 6 g/kg): 1361.31 ± 79.46 ng·h/mL
MRT0–t ([1]; 6 g/kg): 1.45 ± 0.08 h
MRT0–∞ ([1]; 6 g/kg): 1.47 ± 0.08 h
AUC0–∞ ([1]; 12 g/kg): 4527.69 ± 474.54 ng·h/mL
AUC(0-t) ([1]; 12 g/kg): 4397.49 ± 435.63 ng·h/mL
MRT0–t ([1]; 12 g/kg): 3.07 ± 0.63 h
MRT0–∞ ([1]; 12 g/kg): 5.10 ± 4.50 h

Compound: C=C[C@H]1[C@H](O[C@@H]2O[C@H](CO)[C@@H](O)[C@H](O)[C@H]2O)OC=C2C(=O)OCC[C@H]21 [Sweroside, sweroside]
AUC(0-inf) ([2]; 3 g/kg): 452 ± 50.3 ng·h/mL
AUC(0-t) ([2]; 3 g/kg): 313 ± 39.1 ng·h/mL
Cmax ([2]; 3 g/kg): 35.6 ± 2.27 ng/mL
MRT inf ([2]; 3 g/kg): 31.7 ± 4.64 h
Tmax ([2]; 3 g/kg): 1.17 ± 0.26 h
half-life ([2]; 3 g/kg): 21.3 ± 3.33 h
AUC(0-inf) ([2]; 6 g/kg): 690 ± 110 ng·h/mL
AUC(0-t) ([2]; 6 g/kg): 598 ± 59.4 ng·h/mL
Cmax ([2]; 6 g/kg): 135 ± 10.2 ng/mL
MRT inf ([2]; 6 g/kg): 16.7 ± 7.3 h
MRT last ([2]; 6 g/kg): 8.31 ± 2.11 h
half-life ([2]; 6 g/kg): 13.8 ± 7.36 h
AUC(0-inf) ([2]; 12 g/kg): 1330 ± 97.9 ng·h/mL
AUC(0-t) ([2]; 12 g/kg): 1150 ± 35.3 ng·h/mL
Cmax ([2]; 12 g/kg): 301 ± 19.4 ng/mL
MRT inf ([2]; 12 g/kg): 19.2 ± 6.86 h
MRT last ([2]; 12 g/kg): 8.25 ± 0.83 h
Tmax ([2]; 12 g/kg): 0.5 h
half-life ([2]; 12 g/kg): 23.7 ± 12.3 h
effect on adipogenesis of 3T3-L1 cells [3]: excellent bioactivities
effect on alkaline phosphatase (ALP) activity of UMR 106 cells [4]: excellent bioactivities
effect on proliferation of UMR 106 cells [5]: excellent bioactivities

Compound: O=c1ccc2ccc3occc3c2o1 [Isopsoralen, isopsoralen]
AUC(0-inf) [12]: 2470 ± 494 ng·h/mL
AUC(0-t) [12]: 2390 ± 460 ng·h/mL
Cmax [12]: 270 ± 35 ng/mL
MRT inf [12]: 8.73 ± 3.76 h
MRT last [12]: 7.49 ± 2.83 h
Tmax [12]: 3.5 ± 2.49 h
half-life [12]: 6.88 ± 4.89 h
AUC(0-t) [13]: 15100 ± 1290 ng·h/mL
Cmax [13]: 1140 ± 100 ng/mL
MRT inf [13]: 12.2 ± 0.75 h
MRT last [13]: 11.7 ± 0.83 h
Tmax [13]: 3.67 ± 0.52 h
half-life [13]: 6.78 ± 1.09 h
AUC(0-inf) [14]: 19900 ± 2020 ng·h/mL
AUC(0-t) [14]: 19400 ± 2000 ng·h/mL
Cmax [14]: 1240 ± 72.2 ng/mL
MRT inf [14]: 14.2 ± 1.43 h
MRT last [14]: 13.3 ± 0.43 h
Tmax [14]: 1.67 ± 0.41 h
half-life [14]: 6.86 ± 3.44 h

Compound: CC(C)=CCc1cc2c(cc1O)oc(=O)c1c3ccc(O)cc3oc21 [Psoralidin, psoralidin]
AUC0–∞ ([1]; 6 g/kg): 11.58 ± 0.94 ng·h/mL
AUC(0-t) ([1]; 6 g/kg): 8.80 ± 1.38 ng·h/mL
MRT0–t ([1]; 6 g/kg): 1.78 ± 0.36 h
MRT0–∞ ([1]; 6 g/kg): 3.13 ± 0.36 h
AUC0–∞ ([1]; 12 g/kg): 34.27 ± 16.04 ng·h/mL
AUC(0-t) ([1]; 12 g/kg): 27.78 ± 13.97 ng·h/mL
MRT0–t ([1]; 12 g/kg): 2.05 ± 0.45 h
MRT0–∞ ([1]; 12 g/kg): 2.78 ± 0.68 h
effect on adipogenesis of 3T3-L1 cells [3]: obviously inhibited adipocyte formation

Compound: CC1(C)CC[C@]2(C(=O)O[C@@H]3O[C@H](CO[C@@H]4O[C@H](CO)[C@@H](O)[C@H](O)[C@H]4O)[C@@H](O)[C@H](O)[C@H]3O)CC[C@]3(C)C(=CC[C@@H]4[C@@]5(C)CC[C@H](O[C@@H]6OC[C@H](O)[C@H](O)[C@H]6O)[C@@](C)(CO)[C@@H]5CC[C@]43C)[C@@H]2C1 [Akebia saponin D, akebia saponin D]
AUC0–∞ ([1]; 6 g/kg): 756.83 ± 140.72 ng·h/mL
AUC(0-t) ([1]; 6 g/kg): 731.52 ± 131.54 ng·h/mL
MRT0–t ([1]; 6 g/kg): 2.41 ± 0.25 h
MRT0–∞ ([1]; 6 g/kg): 2.63 ± 0.25 h
AUC0–∞ ([1]; 12 g/kg): 2658.47 ± 241.31 ng·h/mL
AUC(0-t) ([1]; 12 g/kg): 2642.49 ± 233.18 ng·h/mL
MRT0–t ([1]; 12 g/kg): 5.03 ± 0.32 h
MRT0–∞ ([1]; 12 g/kg): 5.91 ± 0.50 h

Continued, values first:

AUC(0-inf) [6]: 7.24 ± 6.25 ng·h/mL
AUC(0-t) [6]: 2.1 ± 0.78 ng·h/mL
Cmax [6]: 1.46 ± 0.38 ng/mL
MRT last [6]: 1.57 ± 0.81 h
Tmax [6]: 0.5 h
half-life [6]: 6.28 ± 7.25 h
AUC(0-inf) [7]: 60.6 ± 41 ng·h/mL
AUC(0-t) [7]: 41.1 ± 19 ng·h/mL
Cmax [7]: 10.7 ± 0.59 ng/mL
MRT inf [7]: 19.3 ± 20.7 h
MRT last [7]: 9.13 ± 9.19 h
Tmax [7]: 0.58 ± 0.2 h
half-life [7]: 11.2 ± 9.11 h
AUC(0-inf) [8]: 127 ± 32.3 ng·h/mL
AUC(0-t) [8]: 110 ± 30.3 ng·h/mL
Cmax [8]: 18.4 ± 5.4 ng/mL
MRT inf [8]: 17.2 ± 9.5 h
MRT last [8]: 8.79 ± 2.43 h
half-life [8]: 16.2 ± 10.3 h
Compound: CC(C)=CCc1cc(-c2coc3cc(O)ccc3c2=O)ccc1O [Neobavaisoflavone, neobavaisoflavone]

AUC(0-inf) [6]: 320 ± 96.9 ng·h/mL
AUC(0-t) [6]: 264 ± 76.2 ng·h/mL
Cmax [6]: 31.8 ± 4.77 ng/mL
MRT inf [6]: 26.2 ± 8.51 h
MRT last [6]: 16.4 ± 4.54 h
Tmax [6]: 0.5 h
half-life [6]: 20 ± 8.43 h
AUC(0-inf) [7]: 4610 ± 572 ng·h/mL
AUC(0-t) [7]: 2600 ± 249 ng·h/mL
Cmax [7]: 652 ± 64.6 ng/mL
MRT inf [7]: 44.4 ± 6.88 h
MRT last [7]: 17.3 ± 0.63 h
Tmax [7]: 0.67 ± 0.26 h
half-life [7]: 21.8 ± 4.2 h
AUC(0-inf) [8]: 3480 ± 121 ng·h/mL
AUC(0-t) [8]: 3330 ± 130 ng·h/mL
Cmax [8]: 1160 ± 102 ng/mL
MRT inf [8]: 9.43 ± 0.47 h
MRT last [8]: 6.67 ± 0.32 h
Tmax [8]: 1.67 ± 0.26 h
half-life [8]: 13.4 ± 0.75 h
Compound: COc1ccc2c(c1O)-c1c(O)c(OC)cc3c1[C@H](C2)[N+](C)(C)CC3 [Magnoflorine, magnoflorine]

AUC(0-inf) [6]: 2810 ± 701 ng·h/mL
AUC(0-t) [6]: 2740 ± 682 ng·h/mL
Cmax [6]: 290 ± 23.3 ng/mL
MRT inf [6]: 8.4 ± 2.93 h
MRT last [6]: 7.55 ± 2.44 h
Tmax [6]: 4.5 ± 1.22 h
half-life [6]: 6.39 ± 3.73 h
AUC(0-inf) [7]: 18500 ± 529 ng·h/mL
AUC(0-t) [7]: 18300 ± 511 ng·h/mL
Cmax [7]: 1380 ± 150 ng/mL
MRT inf [7]: 12.2 ± 0.9 h
MRT last [7]: 11.8 ± 0.99 h
Tmax [7]: 2.92 ± 1.28 h
half-life [7]: 6.78 ± 1 h
AUC(0-inf) [8]: 28400 ± 877 ng·h/mL
AUC(0-t) [8]: 28300 ± 899 ng·h/mL
Cmax [8]: 1910 ± 118 ng/mL
MRT inf [8]: 13.3 ± 1.18 h
MRT last [8]: 13.2 ± 1.14 h
half-life [8]: 4.2 ± 0.42 h
Compound: O=c1ccc2cc3ccoc3cc2o1 [Psoralen, psoralen]

AUC0–∞ [9]: 53.60 ± 27.93 ng·h/mL
AUC(0-t) [9]: 31.63 ± 11.39 ng·h/mL
Cmax [9]: 10.25 ± 2.84 ng/mL
MRT0–t [9]: 6.26 ± 4.26 h
MRT0–∞ [9]: 18.47 ± 15.68 h
Tmax [9]: 0.50 ± 0 h
t1/2 [9]: 11.51 ± 9.48 h
AUC0–∞ [10]: 406.85 ± 56.64 ng·h/mL
AUC(0-t) [10]: 346.62 ± 36.95 ng·h/mL
Cmax [10]: 20.41 ± 2.63 ng/mL
MRT0–t [10]: 19.50 ± 3.03 h
MRT0–∞ [10]: 28.15 ± 8.89 h
Tmax [10]: 1.25 ± 1.04 h
t1/2 [10]: 19.08 ± 8.31 h
AUC0–∞ [11]: 379.76 ± 59.32 ng·h/mL
AUC(0-t) [11]: 343.30 ± 61.62 ng·h/mL
Cmax [11]: 36.00 ± 4.29 ng/mL
MRT0–t [11]: 13.56 ± 2.69 h
MRT0–∞ [11]: 18.40 ± 3.38 h
Tmax [11]: 1.58 ± 0.38 h
t1/2 [11]: 12.57 ± 3.06 h
Compound: bavachinin

AUC0–∞ ([1]; 3 g/kg): 86.37 ± 67.67 ng·h/mL
AUC(0-t) ([1]; 3 g/kg): 10.62 ± 3.66 ng·h/mL
MRT0–t ([1]; 3 g/kg): 5.60 ± 5.20 h
MRT0–∞ ([1]; 3 g/kg): 51.11 ± 29.69 h
AUC0–∞ ([1]; 6 g/kg): 227.72 ± 52.75 ng·h/mL
AUC(0-t) ([1]; 6 g/kg): 166.50 ± 26.45 ng·h/mL
MRT0–t ([1]; 6 g/kg): 16.55 ± 4.24 h
MRT0–∞ ([1]; 6 g/kg): 33.27 ± 11.40 h
AUC0–∞ ([1]; 12 g/kg): 442.39 ± 107.76 ng·h/mL
AUC(0-t) ([1]; 12 g/kg): 386.15 ± 84.00 ng·h/mL
MRT0–t ([1]; 12 g/kg): 14.73 ± 1.76 h
MRT0–∞ ([1]; 12 g/kg): 20.65 ± 3.78 h
Compound: corylin
